For assay [1], the target named is T1, DLK (Homo sapiens, UniProt Q12852).
T1 construct: 10 nM DLK, catalytic domain, Carna Biosiences; purchased Carna Biosciences ('Carna Biosiences' [sic])
T1 sequence (Q12852 125-366 limits assumed): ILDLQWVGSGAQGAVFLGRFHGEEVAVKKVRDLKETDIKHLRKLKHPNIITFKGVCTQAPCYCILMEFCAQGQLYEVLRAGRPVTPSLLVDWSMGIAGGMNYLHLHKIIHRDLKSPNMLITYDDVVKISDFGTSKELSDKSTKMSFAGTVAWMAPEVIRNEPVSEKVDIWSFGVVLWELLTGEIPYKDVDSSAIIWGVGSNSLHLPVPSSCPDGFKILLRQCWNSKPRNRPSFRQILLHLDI
In words: DLK biochemical assay (TR-FRET, MKK7 phosphorylation). To be noted: DLK catalytic domain, MKK7 substrate, 60 μM ATP. The method in brief: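 Human DLK activity measured as phosphorylation of His-tagged MKK7 at T275/S277, detected by TR-FRET between Eu-anti-phospho-MKK7 donor (excitation 340 nm) and XL665-anti-His acceptor (665 nm). Signal taken as the XL665/Eu ratio. Detection buffer: 25 mM Tris/HCl pH 7.5, 100 mM EDTA, 100 mM NaCl, 200 mM KF, 0.01% Tween 20.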
Background: Time-resolved FRET reads energy transfer from a long-lived donor to a nearby acceptor.

Assay [2] concerns the target T2, LZK (Homo sapiens, UniProt O43283).
T2 construct: 10 nM LZK, catalytic domain, Carna Biosiences in assay buffer; purchased Carna Biosciences ('Carna Biosiences' [sic])
T2 sequence (O43283 168-409 limits assumed): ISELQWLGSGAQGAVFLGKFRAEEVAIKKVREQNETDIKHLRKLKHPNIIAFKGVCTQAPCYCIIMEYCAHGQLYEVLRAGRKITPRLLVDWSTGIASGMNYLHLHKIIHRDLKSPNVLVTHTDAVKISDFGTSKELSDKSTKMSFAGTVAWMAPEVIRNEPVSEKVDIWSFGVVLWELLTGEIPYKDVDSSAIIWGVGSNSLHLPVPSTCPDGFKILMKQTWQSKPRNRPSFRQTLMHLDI
Briefly: LZK biochemical assay (TR-FRET, MKK7 phosphorylation). To be noted: LZK catalytic domain, MKK7 substrate, 15 μM ATP.

Assay [3] concerns retinal ganglion cells (RGCs). Briefly: Optic nerve crush, RGC survival (RBPMS staining). It is filed as in vivo, C57B6/J animals. To be noted: intravitreal injection of 8 mM, second injection 4 days later, two weeks after optic nerve crush, vs vehicle (FIG. 3). The source says: Inhibition of DLK and LZK can reduce the neuronal injury response and result in the protection of various neuronal populations from degeneration. Cells can be immunostained for p-cJun S73 (p-JUN), which is an indicator of DLK pathway activation. Accordingly, decreased p-JUN staining compared to a control can be indicative of inhibition of DLK pathway activation. RBPMS can be used to mark retinal ganglion cells (RGCs) and show changes in cell survival (e.g., increased RBPMS staining compared to a control can indicate increased cell survival).
Unilateral optic nerve crush was performed on C57B6/J animals between 6 and 8 weeks of age, followed by intravitreal injection of 8 mM of I-106. A second injection was performed 4 days later. Two weeks after optic nerve crush, animals were sacrificed and retinas were immunostained for RBPMS. Confocal microscopy was used to image RGCs and ImageJ was used to quantify the density of RGCs.
Mice were intravitreally injected with 1 μL of vehicle (DMSO), 100 mM I-81, or 300 mM I-81 immediately following optic nerve crush injury. Retinas were extracted 1 month later and immunofluorescently labelled with anti-RBPMS to mark RGCs, anti-phosphorylated JUN (P-JUN) to examine DLK/JNK pathway induction, and Tuj1 to visualize axons (see FIG. 9).

Usually IC50 stands for the concentration needed to halve the response being measured. High values mean weaker potency, low ones greater potency. For `CC[C@H](C)NC(=O)c1cc(-c2cnn([C@H](c3ccc(C(F)(F)F)nc3)C(C)C)c2)cc2nc(N)nn12` (single isomer, unassigned) [Example I-106], the figures for the IC50 in assay [1] and in assay [2] were 0.001 µM and 0.0016 µM, respectively. Besides, the “survival of RGCs (density of RBPMS)” value in assay [3] was “promoted survival of RGCs following optic nerve crush”.
As to `CC(C)(CO)NC(=O)c1cc(-c2cnn(C(c3ccc(C(F)(F)F)nc3)C3CCOCC3)c2)cn2nc(N)nc12` (single isomer, unassigned) [Example I-168, 2-Amino-N-(1-hydroxy-2-methylpropan-2-yl)-6-(1-{tetrahydro-2H-pyran-4-yl[6-(trifluoromethyl)pyridin-3-yl]methyl}-1H-pyrazol-4-yl)[1,2,4]triazolo[1,5-a]pyridine-8-carboxamide], the IC50 in assay [1] came out at 0.0015 µM; in assay [2] it was 0.0089 µM.
`CC[C@@H](c1ccc(OC(F)(F)F)nc1)n1cc(-c2cc(C(=O)NC(C)(C)CO)c3nc(N)nn3c2)cn1` (single isomer, unassigned) [Example I-170, 2-Amino-N-(1-hydroxy-2-methylpropan-2-yl)-6-(1-{1-[6-(trifluoromethoxy)pyridin-3-yl]propyl}-1H-pyrazol-4-yl)[1,2,4]triazolo[1,5-a]pyridine-8-carboxamide]: the IC50 in assay [1] is 0.0055 µM; in assay [2], 0.018 µM.
In the same order, the values of `CCC(c1ccc(OC(F)(F)F)nc1)n1cc(-c2cc(C(=O)NC(C)(C)CO)c3nc(N)nn3c2)cn1` (single isomer, unassigned) [Example I-171, 2-Amino-N-(1-hydroxy-2-methylpropan-2-yl)-6-(1-{1-[6-(trifluoromethoxy)pyridin-3-yl]propyl}-1H-pyrazol-4-yl)[1,2,4]triazolo[1,5-a]pyridine-8-carboxamide] are 0.085 µM and 0.15 µM.
For `CC(C)C(c1cncc(Cl)c1)n1cc(-c2cc(C(=O)NC(C)(C)CO)c3nc(N)nn3c2)cn1` (single isomer, unassigned) [Example I-173, 2-Amino-6-{1-[1-(5-chloropyridin-3-yl)-2-methylpropyl]-1H-pyrazol-4-yl}-N-(1-hydroxy-2-methylpropan-2-yl)[1,2,4]triazolo[1,5-a]pyridine-8-carboxamide], the figures for the IC50 in assay [1] and in assay [2] were 0.002 µM and 0.049 µM, respectively.
Turning to `CC(C)C(c1cncc(Cl)c1)n1cc(-c2cc(C(=O)NC(C)(C)CO)c3nc(N)nn3c2)cn1` (single isomer, unassigned) [Example I-174, 2-Amino-6-{1-[1-(5-chloropyridin-3-yl)-2-methylpropyl]-1H-pyrazol-4-yl}-N-(1-hydroxy-2-methylpropan-2-yl)[1,2,4]triazolo[1,5-a]pyridine-8-carboxamide], the values for the IC50 in assay [1] and in assay [2] were 0.062 µM and 0.69 µM, respectively.
Taken in the same sequence, the figures for `Nc1nc2c(C(=O)N[C@H]3CCOC3)cc(-c3cnn(Cc4cccc5cn[nH]c45)c3)cn2n1` (single isomer, unassigned) [Example I-175] were 0.0038 µM and 0.15 µM.
In the same order, the values of `Nc1nc2cc(-c3cnn(C4CCOCC4)c3)cc(C(=O)N[C@H]3CCOC3)n2n1` (single isomer, unassigned) [Example I-176] are 0.22 µM and 0.21 µM.
In the same order, the values of `CCC(c1ccc(C(F)(F)F)nc1)n1cc(-c2cc(C(=O)N[C@H]3CCOC3)n3nc(N)nc3c2)cn1` (single isomer, unassigned) [Example I-178] are 0.017 µM and 0.064 µM.
On to `CCC(c1ccc(C(F)(F)F)nc1)n1cc(-c2cc(C(=O)N[C@H]3CCOC3)n3nc(N)nc3c2)cn1` (single isomer, unassigned) [Example I-179], for which the IC50 turned out to be 0.0018 µM in assay [1] and 0.0079 µM in assay [2].
Taken in the same sequence, the figures for `CC(C)C(c1ccc(C(F)(F)F)nc1)n1cc(-c2cc(C(=O)N[C@H]3CCOC3)n3nc(N)nc3c2)cn1` (single isomer, unassigned) [Example I-181] were 0.0021 µM and 0.014 µM.
In the same order, the values of `CC(C)C(c1ccc(C(F)(F)F)nc1)n1cc(-c2cc(C(=O)N[C@H]3CCOC3)n3nc(N)nc3c2)cn1` (single isomer, unassigned) [Example I-182] are 0.0003 µM and 0.0012 µM.
As for `Nc1nc2cc(-c3cnn(C(c4ccc(C(F)(F)F)nc4)C4CCOCC4)c3)cc(C(=O)N[C@H]3CCOC3)n2n1` (single isomer, unassigned) [Example I-184], the IC50 stood at 0.013 µM in assay [1] and 0.022 µM in assay [2].
In the same order, the values of `Nc1nc2cc(-c3cnn(C(c4ccc(C(F)(F)F)nc4)C4CCOCC4)c3)cc(C(=O)N[C@H]3CCOC3)n2n1` (single isomer, unassigned) [Example I-185] are 0.0008 µM and 0.0023 µM.
Taken in the same sequence, the figures for `CCC(c1ccc(OCC(F)(F)F)nc1)n1cc(-c2cc(C(=O)N[C@H]3CCOC3)n3nc(N)nc3c2)cn1` (single isomer, unassigned) [Example I-187] were 0.0008 µM and 0.018 µM.
On to `CCC(c1ccc(OCC(F)(F)F)nc1)n1cc(-c2cc(C(=O)N[C@H]3CCOC3)n3nc(N)nc3c2)cn1` (single isomer, unassigned) [Example I-188], for which the concentration for half-maximal inhibition (IC50) in assay [1] stood at 0.016 µM; in assay [2], 0.19 µM.
Regarding `CC[C@H](C)NC(=O)c1cc(-c2cnn(CC3CC3)c2)cn2nc(N)nc12` [Example I-1], the IC50 in assay [1] was 0.097 µM; in assay [2], 0.083 µM.
Take `CC[C@H](C)NC(=O)c1cc(-c2cnn(C(CC#N)C(F)(F)F)c2)cc2nc(N)nn12` (some centres unmarked) [Example I-2]: the values for the IC50 in assay [1] and in assay [2] were 0.036 µM and 0.074 µM, respectively.
Taken in the same sequence, the figures for `CC[C@H](C)NC(=O)c1cc(-c2cnn(C3CCC(F)(F)CC3)c2)cn2nc(N)nc12` [Example I-3] were 0.066 µM and 0.012 µM.
`CC[C@H](C)NC(=O)c1cc(-c2cnn(C3CN(C)C3)c2)cn2nc(N)nc12` [Example I-4]: the 50% inhibitory concentration (IC50) in assay [1] amounted to 0.084 µM; in assay [2] it was 0.026 µM.
Consider `CC[C@H](C)NC(=O)c1cc(-c2cnn(C3CN(Cc4ccccc4)C3)c2)cn2nc(N)nc12` [Example I-5], for which the values for the IC50 in assay [1] and in assay [2] were 0.055 µM and 0.015 µM, respectively.
As for `Nc1nc2c(C(=O)NC3CCC3)cc(-c3cnn(Cc4ccc(F)cc4)c3)cn2n1` [Example I-132, 2-Amino-N-cyclobutyl-6-{1-[(4-fluorophenyl)methyl]-1H-pyrazol-4-yl}[1,2,4]triazolo[1,5-a]pyridine-8-carboxamide], the half-maximal inhibitory concentration (IC50) came out at 0.085 µM in assay [1] and 0.24 µM in assay [2].
Take “tert-Butyl 4-{(4-{2-amino-8-[(2S)-butan-2-ylcarbamoyl][1,2,4]triazolo[1,5-a]pyridin-6-yl}-1H-pyrazol-1-yl)[6-(trifluoromethyl)pyridin-3-yl]methyl}piperidine-1-carboxylate [Example I-80]”: the IC50 in assay [1] came to 0.045 µM; in assay [2] it was 0.04 µM.

Source of the values: patent publication US20230086702A1, “SUBSTITUTED 2-AMINO-PYRAZOLYL-[1,2,4]TRIAZOLO[1,5A]PYRIDINE DERIVATIVES AND USE THEREOF” (The Johns Hopkins University, priority 2019, published 2023).
